Consider three molecules from patent US20250270198A1, “PYRIDONE COMPOUNDS AS TRPA1 INHIBITORS” (D. E. Shaw Research, LLC, priority 2022, published 2025).

Broadly, the pIC50 is the negative decadic logarithm of the IC50, by convention in mol/L. Low values mean a large IC50, high ones a small IC50.

One experiment has as its target hERG channel (Homo sapiens (Human), UniProt Q12809). The experiment can be described thus: hERG activity, automated patch clamp (SyncroPatch). The settings on record: CHO-K1 cells stably expressing hERG, tail current at −50 mV, compounds at 50 μM and 100 μM. The experiment is classed as cell-based. As for the experimental part: This assay was used to evaluate the disclosed compounds' inhibition activities against the hERG channel.
CHO-K1 cells stably expressing hERG were grown in Ham's F-12 Medium with Glutamine containing 10% heat-inactivated FBS, 1% Penicillin/Streptomycin, Hygromycin (100 μg/ml), and G418 (100 μg/ml). Cells used for electrophysiology were plated in plastic culture flasks and grown at 37° C. in a 5% CO2-humidified incubator per ChanPharm SOP. Stocks were maintained in cryogenic storage.
The cells were bathed in an extracellular solution containing 140 mM NaCl, 4 mM KCl, 2 mM CaCl2), 1 mM MgCl2, 5 mM Glucose, and 10 mM HEPES; pH adjusted to 7.4 with NaOH; 295-305 mOsm. The internal solution contained 10 mM KCl, 110 mM KF, 10 mM NaCl, 10 mM EGTA, 10 mM HEPES; pH adjusted to 7.2 with KOH; 280-285 mOsm. All compounds were dissolved in DMSO at 30 mM. Compound stock solutions were freshly diluted with external solution to concentrations of 50 μM and 100 μM. The highest content of DMSO […].
All experiments were performed at room temperature. Each cell acted as its own control. In preparation for a recording session, intracellular solution (see above) was loaded into the intracellular compartments of the automated patch clamp platform SyncroPatch (Nanion) chip and the cell suspension was pipetted into the extracellular compartments. After establishment of a whole-cell configuration, membrane current recordings, and compound application were enabled by means of the SyncroPatch. hERG currents were elicited by a voltage pulse pattern with fixed amplitudes (depolarization: +20 mV amplitude, 300 ms duration; repolarization: −50 mV, 300 ms duration) repeated at 3 s intervals from a holding potential of −80 mV.
Data acquisition and analysis were performed using DataControl384 (Nanion's proprietary software). To determine the (percentage) inhibition, the last single pulse in the pulse train (i.e., the repolarization step to −50 mV; tail current) at a given compound concentration was used. AUC and peak values, obtained in the presence of compound, were normalized to control values in the absence of compound.
(The hERG channel carries a current that helps repolarise heart muscle cells.)

Another experiment concerns the target human TRPA1 channel (Homo sapiens (Human), UniProt O75762). The experiment can be described thus: TRPA1 inhibitor activity, automated patch clamp (SyncroPatch). Format: cell-based. The settings on record: CHO cells inducibly expressing human TRPA1, currents elicited by carvacrol (300 μM), holding potential −60 mV. As for the experimental part:
This assay was used to evaluate the disclosed compounds' inhibition activities against the human TRPA1 channel.
CHO cells inducibly expressing human TRPA1 were grown in DMEM containing 10% heat-inactivated FBS, 1 mM Sodium Pyruvate, 2 mM L-Glutamine, Zeocin (100 μg/ml) and Blasticidin (10 μg/ml). Expression was induced by addition of Doxycycline (1 μg/ml) 24 hours before experiments. Cells used for electrophysiology were plated in plastic culture flasks and grown at 37° C. in a 5% CO2-humidified tissue culture incubator per ChanPharm SOP. Stocks were maintained in cryogenic storage.
The cells were bathed in an extracellular solution containing 80 mM NaCl, 60 mM NMDG, 4 mM KCl, 2 mM CaCl2), 6 mM MgCl2, 5 mM Glucose. 10 mM HEPES, 3 mM HEDTA; pH adjusted to 7.4 with NaOH; 305-310 mOsm. All compounds were dissolved in DMSO at 30 mM. The internal solution contained 10 mM CsCl, 110 mM CsF, 10 mM NaCl, 10 mM EGTA, 10 mM HEPES, 4 mM MgATP, 0.25 mM NaGTP, 4 mM BAPTA; pH adjusted to 7.2 with CsOH; 285-290 mOsm. Compound stock solutions were freshly diluted with external solution to concentrations of 3 nM, 10 nM 30 nM, 100 nM, 300 nM, 1 μM, 3 μM, 10 μM, and 30 μM. The highest content of DMSO (0.1%) was present at 30 μM.
All experiments were performed at room temperature. Each cell acted as its own control. In preparation for a current recording session, intracellular solution (see above) was loaded into the intracellular compartments of the automated patch clamp platform SyncroPatch (Nanion) chip and the cell suspension was pipetted into the extracellular compartments. After establishment of a whole-cell configuration, membrane current recordings and compound application were enabled by means of the SyncroPatch. TRPA1 currents were elicited by application of carvacrol (300 μM) at a constant holding potential of −60 mV (see Table A below).
To determine IC50 values, AUC and peak values, obtained in the presence of a given compound concentration, were normalized to control values in absence of compound. Using DataControl384 (Nanion's proprietary software), IC50 values were derived by fitting the normalized data to the Hill equation.
In general terms: In patch-clamp work, channel activity is measured electrically.

pIC50: −log10 of the molar value.

Sequence of human TRPA1 channel (O75762 whole entry): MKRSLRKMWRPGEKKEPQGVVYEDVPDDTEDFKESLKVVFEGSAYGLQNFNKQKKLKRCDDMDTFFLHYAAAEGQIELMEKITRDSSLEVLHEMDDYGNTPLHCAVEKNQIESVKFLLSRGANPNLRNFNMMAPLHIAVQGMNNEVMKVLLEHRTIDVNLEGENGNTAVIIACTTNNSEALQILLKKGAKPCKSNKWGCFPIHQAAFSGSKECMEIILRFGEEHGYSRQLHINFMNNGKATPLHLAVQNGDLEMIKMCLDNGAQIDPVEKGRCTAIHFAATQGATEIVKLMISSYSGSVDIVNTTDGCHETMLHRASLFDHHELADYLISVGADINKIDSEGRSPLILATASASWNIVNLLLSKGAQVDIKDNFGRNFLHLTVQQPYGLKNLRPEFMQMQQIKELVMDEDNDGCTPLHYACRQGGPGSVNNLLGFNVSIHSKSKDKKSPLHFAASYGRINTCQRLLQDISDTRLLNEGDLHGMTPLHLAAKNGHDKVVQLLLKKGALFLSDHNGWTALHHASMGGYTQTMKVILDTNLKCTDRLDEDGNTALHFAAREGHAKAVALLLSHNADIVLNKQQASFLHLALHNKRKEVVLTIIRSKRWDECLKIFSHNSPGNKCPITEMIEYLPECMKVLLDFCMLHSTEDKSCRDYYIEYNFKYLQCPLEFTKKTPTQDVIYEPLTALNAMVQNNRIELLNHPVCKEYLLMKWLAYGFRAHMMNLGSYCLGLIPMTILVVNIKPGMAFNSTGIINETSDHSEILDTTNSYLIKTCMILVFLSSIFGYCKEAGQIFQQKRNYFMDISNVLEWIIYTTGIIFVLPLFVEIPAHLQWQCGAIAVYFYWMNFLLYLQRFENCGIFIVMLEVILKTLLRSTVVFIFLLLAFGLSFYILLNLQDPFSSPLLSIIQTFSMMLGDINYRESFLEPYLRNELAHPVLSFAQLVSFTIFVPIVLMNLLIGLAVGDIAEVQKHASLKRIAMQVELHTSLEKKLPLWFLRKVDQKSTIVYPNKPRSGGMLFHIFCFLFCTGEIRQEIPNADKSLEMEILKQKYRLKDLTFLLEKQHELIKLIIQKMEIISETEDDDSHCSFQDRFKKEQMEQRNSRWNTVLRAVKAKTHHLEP
Sequence of hERG channel (Q12809 whole entry): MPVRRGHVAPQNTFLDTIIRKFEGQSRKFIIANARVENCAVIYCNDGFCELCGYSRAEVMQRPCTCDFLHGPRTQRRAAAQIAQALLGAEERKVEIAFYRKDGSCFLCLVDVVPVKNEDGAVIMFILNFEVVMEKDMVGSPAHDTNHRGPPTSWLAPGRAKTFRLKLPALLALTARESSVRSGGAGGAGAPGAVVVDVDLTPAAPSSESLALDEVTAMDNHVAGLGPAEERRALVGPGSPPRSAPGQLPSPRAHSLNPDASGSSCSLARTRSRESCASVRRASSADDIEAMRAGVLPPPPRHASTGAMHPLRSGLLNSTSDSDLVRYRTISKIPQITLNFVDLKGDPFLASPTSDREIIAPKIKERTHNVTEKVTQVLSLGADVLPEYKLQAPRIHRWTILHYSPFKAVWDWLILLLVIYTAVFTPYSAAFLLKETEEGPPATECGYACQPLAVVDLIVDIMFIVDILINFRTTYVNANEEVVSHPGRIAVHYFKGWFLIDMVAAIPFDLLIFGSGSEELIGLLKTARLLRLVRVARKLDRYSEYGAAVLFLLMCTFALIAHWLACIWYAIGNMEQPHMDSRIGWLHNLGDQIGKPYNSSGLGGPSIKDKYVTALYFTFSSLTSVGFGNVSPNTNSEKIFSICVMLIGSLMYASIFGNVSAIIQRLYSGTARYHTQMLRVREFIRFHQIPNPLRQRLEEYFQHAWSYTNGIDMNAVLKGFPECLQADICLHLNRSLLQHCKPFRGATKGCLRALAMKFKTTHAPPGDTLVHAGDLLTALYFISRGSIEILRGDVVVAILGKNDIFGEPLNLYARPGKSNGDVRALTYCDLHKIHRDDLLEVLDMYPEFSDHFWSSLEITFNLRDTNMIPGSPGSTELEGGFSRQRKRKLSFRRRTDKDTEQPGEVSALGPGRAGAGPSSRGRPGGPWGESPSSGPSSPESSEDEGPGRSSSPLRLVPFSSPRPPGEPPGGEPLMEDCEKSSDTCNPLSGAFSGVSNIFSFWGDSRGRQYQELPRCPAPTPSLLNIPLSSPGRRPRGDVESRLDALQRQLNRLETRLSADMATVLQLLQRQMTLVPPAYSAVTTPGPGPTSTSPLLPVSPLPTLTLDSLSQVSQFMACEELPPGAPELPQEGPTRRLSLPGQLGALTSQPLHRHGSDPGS

Regarding `Cc1nc(Br)cn(Cc2nc(C[C@H](O)c3ccc(Cl)cc3)no2)c1=O` [Compound 27, (S)-5-bromo-1-((3-(2-(4-chlorophenyl)-2-hydroxyethyl)-1,2,4-oxadiazol-5-yl)methyl)-3-methylpyrazin-2(1H)-one], the values for the negative-log IC50 (pIC50) against hERG channel (Table 4) and against human TRPA1 channel (Table 4) were above 4.30 and above 6.52, respectively.

For `Nc1c(Cl)ncn(Cc2nc(C[C@H](O)c3ccc(Cl)cc3)no2)c1=O` [Compound 66, (S)-5-amino-6-chloro-3-((3-(2-(4-chlorophenyl)-2-hydroxyethyl)-1,2,4-oxadiazol-5-yl)methyl)pyrimidin-4(3H)-one], the pIC50 at hERG channel (Table 5) was below 4.30; at human TRPA1 channel (Table 5), above 6.52.

On to `Nc1ccn(Cc2nc(C[C@H](O)c3ccc(Cl)cc3)no2)c(=O)c1Cl` [Compound 14, (S)-4-amino-3-chloro-1-((3-(2-(4-chlorophenyl)-2-hydroxyethyl)-1,2,4-oxadiazol-5-yl)methyl)pyridin-2(1H)-one], for which the pIC50 against hERG channel (Table 4) is below 4.30; against human TRPA1 channel (Table 4) it was above 5.52.
